From patent US11866450B2, “Modulators of Cystic Fibrosis Transmembrane Conductance regulator, pharmaceutical compositions, methods of treatment, and process for making the modulators” (priority 2018, dated 2024)

Target: CFTR-mediated chloride transport (Homo sapiens, UniProt P13569)
Format: cell-based
Conditions: enteroid cells incubated with test compound 18-24 hours, acute 10 μM forskolin and 300 nM Compound III; for Max. Activity: % of chloride transport with 3 μM Compound A, 3 μM Compound II and 300 nM acute Compound III triple combination control
Method in brief: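 Human intestinal enteroid cells incubated with compound 18–24 h at 37° C., then membrane potential dye (FLIPR) read 15 min after chloride-free stimulation with 10 μM forskolin, 100 μM IBMX and 300 nM Compound III. AUC expressed as % of triple-combination control (3 μM Compound A, 3 μM Compound II, 300 nM Compound III).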

Chain of CFTR-mediated chloride transport (P13569 whole entry, looked up): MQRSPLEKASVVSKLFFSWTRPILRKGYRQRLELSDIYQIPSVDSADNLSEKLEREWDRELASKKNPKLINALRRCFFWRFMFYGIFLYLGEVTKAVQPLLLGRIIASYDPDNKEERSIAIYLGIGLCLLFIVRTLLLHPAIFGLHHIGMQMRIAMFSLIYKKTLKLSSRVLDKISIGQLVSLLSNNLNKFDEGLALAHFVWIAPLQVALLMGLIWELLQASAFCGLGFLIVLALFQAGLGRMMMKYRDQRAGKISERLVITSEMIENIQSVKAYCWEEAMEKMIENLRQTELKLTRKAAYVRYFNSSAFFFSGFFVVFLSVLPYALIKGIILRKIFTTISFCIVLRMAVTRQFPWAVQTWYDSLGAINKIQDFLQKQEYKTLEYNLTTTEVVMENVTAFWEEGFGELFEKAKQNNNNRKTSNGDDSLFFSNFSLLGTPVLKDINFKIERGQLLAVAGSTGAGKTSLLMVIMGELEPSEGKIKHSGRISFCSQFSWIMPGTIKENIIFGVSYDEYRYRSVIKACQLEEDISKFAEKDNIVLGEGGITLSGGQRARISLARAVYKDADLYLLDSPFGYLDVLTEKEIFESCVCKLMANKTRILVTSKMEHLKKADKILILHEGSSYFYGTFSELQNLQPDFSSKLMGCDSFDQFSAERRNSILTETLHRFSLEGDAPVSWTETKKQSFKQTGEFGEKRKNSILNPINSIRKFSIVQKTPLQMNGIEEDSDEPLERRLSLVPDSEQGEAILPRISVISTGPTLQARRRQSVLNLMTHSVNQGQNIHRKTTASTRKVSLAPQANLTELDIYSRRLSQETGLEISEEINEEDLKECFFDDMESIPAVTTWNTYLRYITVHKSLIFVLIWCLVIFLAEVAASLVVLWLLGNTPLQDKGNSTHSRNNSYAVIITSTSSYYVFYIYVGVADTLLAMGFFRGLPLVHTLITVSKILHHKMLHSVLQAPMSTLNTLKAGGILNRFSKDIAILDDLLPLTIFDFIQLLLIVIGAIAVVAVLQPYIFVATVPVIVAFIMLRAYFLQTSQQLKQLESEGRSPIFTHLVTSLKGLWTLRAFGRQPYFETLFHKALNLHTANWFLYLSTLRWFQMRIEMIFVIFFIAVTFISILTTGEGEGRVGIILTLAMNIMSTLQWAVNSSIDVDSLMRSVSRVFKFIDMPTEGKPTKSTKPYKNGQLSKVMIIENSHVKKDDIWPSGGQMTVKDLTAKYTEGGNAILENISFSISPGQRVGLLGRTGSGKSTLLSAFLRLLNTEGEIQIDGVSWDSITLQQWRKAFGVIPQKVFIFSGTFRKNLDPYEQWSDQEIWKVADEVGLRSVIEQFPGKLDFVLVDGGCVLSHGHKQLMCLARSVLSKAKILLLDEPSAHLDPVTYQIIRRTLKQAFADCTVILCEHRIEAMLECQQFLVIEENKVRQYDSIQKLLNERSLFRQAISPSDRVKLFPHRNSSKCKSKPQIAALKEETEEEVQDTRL

SMILES | EC50 [nM] | Max. Activity
CC1(C)C[C@H]2CCNc3cccc(n3)S(=O)(=O)NC(=O)c3ccc(-n4ccc(OCCC(C5CC5)C5CC5)n4)nc3N1C2 (single isomer, unassigned) [Compound 250, 11-[3-(3,3-Dicyclopropylpropoxy)-1H-pyrazol-1-yl]-7,7-dimethyl-17λ^6-thia-2,8,10,16,22-pentaazatetracyclo[16.3.1.15,8.09,14]tricosa-1(22),9,11,13,18,20-hexaene-15,17,17-trione] | < 1000 | ++ (++ is 30-60%)
CC1(C)C[C@H]2CCNc3cccc(n3)S(=O)(=O)NC(=O)c3ccc(-n4ccc(OCCC(C5CC5)C5CC5)n4)nc3N1C2 (single isomer, unassigned) [Compound 251, 11-[3-(3,3-dicyclopropylpropoxy)-1H-pyrazol-1-yl]-7,7-dimethyl-17λ^6-thia-2,8,10,16,22-pentaazatetracyclo[16.3.1.15,8.09,14]tricosa-1(22),9,11,13,18,20-hexaene-15,17,17-trione] | < 1000 | ++ (++ is 30-60%)
CC1(C)C[C@H]2CCCNc3cccc(n3)S(=N)(=O)NC(=O)c3ccc(-n4ccc(OCCC5(C(F)(F)F)CC5)n4)nc3N1C2 (single isomer, unassigned) [Compound 266, 2-Imino-12,12-dimethyl-8-(3-{2-[1-(trifluoromethyl)cyclopropyl]ethoxy}-1H-pyrazol-1-yl)-2λ^6-thia-3,9,11,18,23-pentaazatetracyclo[17.3.1.111,14.05,10]tetracosa-1(23),5,7,9,19,21-hexaene-2,4-dione] | < 1000 | ++ (++ is 30-60%)
CC1(C)C[C@H]2CCCNc3cccc(n3)S(=N)(=O)NC(=O)c3ccc(-n4ccc(OCCC5(C(F)(F)F)CC5)n4)nc3N1C2 (single isomer, unassigned) [Compound 267, 2-imino-12,12-dimethyl-8-(3-{2-[1-(trifluoromethyl)cyclopropyl]ethoxy}-1H-pyrazol-1-yl)-2λ^6-thia-3,9,11,18,23-pentaazatetracyclo[17.3.1.111,14.05,10]tetracosa-1(23),5,7,9,19,21-hexaene-2,4-dione] | < 1000 | +++ (+++ is >60%)
CC1(C)C[C@H]2CCCNc3cccc(n3)S(=N)(=O)NC(=O)c3ccc(-n4ccc(OCCC5(C(F)(F)F)CC5)n4)nc3N1C2 (single isomer, unassigned) [Compound 271, 2-Imino-12,12-dimethyl-8-(3-{2-[1-(trifluoromethyl)cyclopropyl]ethoxy}-1H-pyrazol-1-yl)-2λ^6-thia-3,9,11,18,23-pentaazatetracyclo[17.3.1.111,14.05,10]tetracosa-1(23),5,7,9,19,21-hexaene-2,4-dione] | < 1000 | +++ (+++ is >60%)
CC1(C)C[C@H]2CCCNc3cccc(n3)S(=N)(=O)NC(=O)c3ccc(-n4ccc(OCCC5(C(F)(F)F)CC5)n4)nc3N1C2 (single isomer, unassigned) [Compound 272, 2-imino-12,12-dimethyl-8-(3-{2-[1-(trifluoromethyl)cyclopropyl]ethoxy}-1H-pyrazol-1-yl)-2λ^6-thia-3,9,11,18,23-pentaazatetracyclo[17.3.1.111,14.05,10]tetracosa-1(23),5,7,9,19,21-hexaene-2,4-dione] | > 3000 | + (+ is <30%)
CC1(C)C[C@H]2CCCCn3ccc(n3)S(=O)(=O)NC(=O)c3ccc(-n4ccc(OCCCC5(C(F)(F)F)CC5)n4)nc3N1C2 (single isomer, unassigned) [Compound 276, 21,21-dimethyl-4-(3-{3-[1-(trifluoromethyl)cyclopropyl]propoxy}-1H-pyrazol-1-yl)-10λ^6-thia-1,3,9,14,23-pentaazatetracyclo[17.2.1.111,14.02,7]tricosa-2,4,6,11(23),12-pentaene-8,10,10-trione] | < 1000 | ++ (++ is 30-60%)
